Values quoted from earlier work as cited in patent publication US6800616B2, “Treatment of HIV infections” (SuperGen, Inc., priority 1998, dated 2004).

Tests used:
[1] = molecular target: T1, adenosine deaminase (ADA) (Homo sapiens, UniProt P00813)
T1 sequence (P00813 1-363): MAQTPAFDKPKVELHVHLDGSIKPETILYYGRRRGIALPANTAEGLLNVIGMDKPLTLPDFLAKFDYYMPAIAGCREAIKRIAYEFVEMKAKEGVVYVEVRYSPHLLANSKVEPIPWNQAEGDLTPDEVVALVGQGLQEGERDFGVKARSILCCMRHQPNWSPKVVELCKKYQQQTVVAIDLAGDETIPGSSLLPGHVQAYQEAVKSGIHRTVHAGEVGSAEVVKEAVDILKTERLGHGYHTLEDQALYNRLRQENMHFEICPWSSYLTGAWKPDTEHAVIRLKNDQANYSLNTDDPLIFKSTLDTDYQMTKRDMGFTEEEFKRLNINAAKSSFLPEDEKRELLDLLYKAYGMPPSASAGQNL

[2] = system: T cells, CD4+ subset; settings: patients given DCF, FLU or 2CDA
[3] = system: resting normal human lymphocytes

SMILES	resistance to ADA [1]	frequency of opportunistic infections [2]	lymphopenia upon administration [2]	toxicity to resting lymphocytes [3]
Nc1nc(Cl)nc2c1ncn2[C@H]1C[C@H](O)[C@@H](CO)O1 [2CDA, 2-chloro-2′-deoxyadenosine]	rather resistant to the enzyme	increased frequency of opportunistic infections	prolonged lymphopenia predominating in T cells, especially in the CD4+ subset	selectively harm resting normal human lymphocytes
OC[C@H]1O[C@@H](n2cnc3c2NC=NC[C@H]3O)C[C@@H]1O [DCF, 2′-deoxycoformycin]	–	increased frequency of opportunistic infections	prolonged lymphopenia predominating in T cells, especially in the CD4+ subset	–
Nc1nc(F)nc2c1ncn2[C@@H]1O[C@H](COP(=O)(O)O)[C@@H](O)[C@@H]1O [FLU, fludarabine monophosphate]	rather resistant to the enzyme	increased frequency of opportunistic infections	prolonged lymphopenia predominating in T cells, especially in the CD4+ subset	–
